Reference: patent publication US20170122958A1, “Enzymes Functional Probes” (University of Dundee, priority 2013, published 2017)

Experiments:
[1] = system: Brd2(1) and (2) wild type and leucine to alanine, valine and isoleucine mutants; assay: DSF thermal stabilization (FIG. 15); format: binding, human; details: result in words
Method: (§1) DSF assays were performed on a LightCycler®480 from Roche or a Mx3005P Real Time PCR machine from Stratagene. […] SYPRO®Orange from Invitrogen Molecular Probes® was used as a reporter dye to monitor the denaturing process of the proteins. Samples were assayed on a 96-well plate with final protein concentrations of 2 μM for the LightCycler®480 and 6 μM for Mx3005P. Compounds were added at a final concentration of 10 μM for the LightCycler®480 and 30 μM for Mx3005P, while the tetra acetylated histone peptide was added to a final concentration of 100 μM and 300 μM respectively. […] The temperature was raised with a step of 0.6° C. per minute from 37° C. to 95° C. with the LightCycler®480 collecting 39 measurements per ° C., and 1° C. per minute from 25° C. to 95° C. with Mx3005P, collecting fluorescence readings at the end of each interval. Each sample was run in triplicates.
(§2) Collected data was analysed by IGOR Pro 6, a scientific software tool from Wave Metrics, Inc. Analysis was done following the recommendations of Niesen et al.. Fluorescence intensity was plotted as a function of temperature, generating a sigmoidal curve described by a two-state transition from folded to unfolded protein. Curves were fitted by the following sigmoidal equation: […]
(§3) A1 and A2 are the values of minimum and maximum intensities, respectively, x0 is the inflection point and dx is the rate. Fitted curves were differentiated in IGOR Pro 6 and the maximum of the first derivative was identified using the same program. These values correspond to the inflection points of the transition curves and thus to the melting temperatures of the proteins (Tm).

[2] = system: WT and mutants (Leu to Ala, Leu to Val and Leu to Ile) of Brd2(2); assay: ITC of compound into protein (FIG. 16); format: binding, human; details: 250 μM compound into 25 μM protein; result in words
Method: To investigate the utility of the new compounds further, the inventors performed isothermal titration experiments by titrating 250 μM compound solutions (AL, ME-Am1, ET-Am1, ME-Am2, ET-Am2, 9-ME, 9-ET, 9-ME-Am1 and 9-ET-Am1) 25 μM protein solutions (WT and mutants (Leu to Ala, Leu to Val and Leu to Ile) of Brd2(2)).
(§4) ITC experiments were carried out on a ITC200 instrument from MicroCal™ Experiments were conducted at 3 different temperatures 15° C., 25° C. and 30° C., while stirring at 1000 rpm. Buffers of proteins, peptide and compounds were matched to 20 mM HEPES pH 7.5 at 25° C. and 100 mM NaCl. Frozen protein was buffer exchanged as described for the DSF experiments. Each titration comprised 1 initial injection of 0.4 μl lasting 0.8 s, followed by 19 injections of 2 μl lasting 4 s each at 2 min intervals. The initial injection was discarded during data analysis. Standard and reverse titrations were conducted depending on the binding partners.
(§5) All the data was fitted to a single binding site model using the Microcal LLC ITC200 Origin software provided by the manufacturer to yield enthalpies of binding (ΔH) and binding constants (Kas). Further thermodynamic parameters were calculated from these values (changes in entropy ΔS, changes in free energy AG and dissociation constants (Kds)).

[3] = target: T1, Brd2(1) (Homo sapiens, UniProt P25440); assay: DSF thermal shift; format: binding; details: wild type
T1 construct: Plasmids of the eight single BET bromodomain constructs Brd2(1), Brd2(2), Brd3(1), Brd3(2); His6 (N); made in house; host or cells: E. coli BL21(DE3)

[4] = target: T2, Brd2(2) (Homo sapiens, UniProt P25440); assay: DSF thermal shift; format: binding; details: wild type
T2 construct: Plasmids of the eight single BET bromodomain constructs Brd2(1), Brd2(2), Brd3(1), Brd3(2); His6 (N); made in house; host or cells: E. coli BL21(DE3)

[5] = target: T3, Brd4(1) (Homo sapiens, UniProt O60885); assay: DSF thermal shift; format: binding; details: wild type
T3 construct: Plasmids of the eight single BET bromodomain constructs Brd2(1), Brd2(2), Brd3(1), Brd3(2), Brd4(1), Brd4(2), Brdt(1) and Brdt(2); His6 (N); made in house; host or cells: E. coli BL21(DE3)

[6] = target: T4, Brd4(2) (Homo sapiens, UniProt O60885); assay: DSF thermal shift; format: binding; details: wild type
T4 construct: Plasmids of the eight single BET bromodomain constructs Brd2(1), Brd2(2), Brd3(1), Brd3(2), Brd4(1), Brd4(2), Brdt(1) and Brdt(2); His6 (N); made in house; host or cells: E. coli BL21(DE3)

[7] = target: T5, brd4(1)L094A (Homo sapiens, UniProt O60885, L94A); assay: DSF thermal shift; format: binding; details: mutant
T5 construct: Plasmids of the eight single BET bromodomain constructs Brd2(1), Brd2(2), Brd3(1), Brd3(2), Brd4(1), Brd4(2), Brdt(1) and Brdt(2); His6 (N); made in house; host or cells: E. coli BL21(DE3)

[8] = target: T6, brd4(2)L387A (Homo sapiens, UniProt O60885, L387A); assay: DSF thermal shift; format: binding; details: mutant
T6 construct: Plasmids of the eight single BET bromodomain constructs Brd2(1), Brd2(2), Brd3(1), Brd3(2), Brd4(1), Brd4(2), Brdt(1) and Brdt(2); His6 (N); made in house; host or cells: E. coli BL21(DE3)

[9] = target: T1, Brd2(1); assay: ITC reverse titration of protein into compound; format: binding; details: for ΔH Brd2(1): ITC 30° C., 1% DMSO
Method: as §4
(§6) Reverse titrations were conducted to test the binding of the known ligands and the novel chemical probes to the wild types and the mutants. Experiments were carried out either at 25° C. or 30° C. […] In cases where the compound was solubilized in dimethyl sulfoxide, DMSO concentration was adjusted to 1% both in the syringe and in the cell.
as §5

[10] = target: T2, Brd2(2); assay: ITC reverse titration of protein into compound; format: binding; details: ITC 30° C., 1% DMSO; for Kd: Kd Brd2(2)
Method: as §4, §6, §5

[11] = Solubility observations; details: observation in words
[12] = target: T7, Brd2(1)*(Leu110-Ala) (Homo sapiens, UniProt P25440, L110A); assay: DSF thermal shift; format: binding; parameters: Plasmids of the eight single BET bromodomain constructs Brd2(1), Brd2(2), Brd3(1), Brd3(2); His6 (N); made in house; host or cells: E. coli BL21(DE3); details: mutant
Method: as §1, §2, §3

[13] = target: T8, Brd2(2)*(Leu383-Ala) (Homo sapiens, UniProt P25440, L383A); assay: DSF thermal shift; format: binding; parameters: Plasmids of the eight single BET bromodomain constructs Brd2(1), Brd2(2), Brd3(1), Brd3(2); His6 (N); made in house; host or cells: E. coli BL21(DE3); details: mutant
Method: as §1, §2, §3

[14] = target: T7, Brd2(1)*(Leu110-Ala); assay: ITC reverse titration of protein into compound; format: binding; parameters: Plasmids of the eight single BET bromodomain constructs Brd2(1), Brd2(2), Brd3(1), Brd3(2), Brd4(1), Brd4(2), Brdt(1) and Brdt(2); His6 (N); made in house; host or cells: E. coli BL21(DE3); details: for ΔH Brd2(1)* (Leu110-Ala): ITC 30° C., 1% DMSO
Method: as §4, §6, §5

[15] = target: T8, Brd2(2)*(Leu383-Ala); assay: ITC reverse titration of protein into compound; format: binding; parameters: Plasmids of the eight single BET bromodomain constructs Brd2(1), Brd2(2), Brd3(1), Brd3(2), Brd4(1), Brd4(2), Brdt(1) and Brdt(2); His6 (N); made in house; host or cells: E. coli BL21(DE3); details: ITC 30° C., 1% DMSO; for Kd: Kd Brd2(2)* (Leu383-Ala)
Method: as §4, §6, §5

T1 sequence (P25440 74-180 limits assumed): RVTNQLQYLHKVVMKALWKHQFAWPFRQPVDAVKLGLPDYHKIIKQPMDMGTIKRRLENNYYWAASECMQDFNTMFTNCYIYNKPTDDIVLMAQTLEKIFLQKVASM
T8 sequence (P25440 344-453 L383A limits assumed): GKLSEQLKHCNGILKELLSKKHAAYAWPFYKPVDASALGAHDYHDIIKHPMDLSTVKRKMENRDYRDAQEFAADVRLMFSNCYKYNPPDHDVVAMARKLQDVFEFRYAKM
T2 sequence (P25440 344-453 limits assumed): as the sequence (P25440 344-453 L383A limits assumed) above, with A40L counted along it
T7 sequence (P25440 74-180 L110A limits assumed): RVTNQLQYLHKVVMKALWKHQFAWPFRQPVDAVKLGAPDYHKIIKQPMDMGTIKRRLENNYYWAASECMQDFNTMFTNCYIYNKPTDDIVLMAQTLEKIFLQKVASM

## CCNC(=O)[C@H](CC)[C@@H]1N=C(c2ccc(Cl)cc2)c2ccc(OC)cc2-n2c(C)nnc21 (racemic) [Compound 9-ET-Am1, (+−) (R)-2-((S)-6-(4-chlorophenyl)-9-methoxy-1-methyl-4H-benzo[f][1,2,4]triazolo[4,3-a][1,4]diazepin-4-yl)-N-ethylbutanamide]
[1]
  Thermal stabilization of Brd2 mutants versus wild types (FIG. 15): smaller shifts
[2]
  Selectivity for Brd2(2) mutants relative to wild type by ITC (FIG. 16): higher selectivity for the mutants relative to wild types

## CCC[C@@H](C(=O)OC)[C@@H]1N=C(c2ccc(Cl)cc2)c2cc(OC)ccc2-n2c(C)nnc21 (racemic) [Compound 12, (+−)-methyl (R)-2-((S)-6-(4-chlorophenyl)-8-methoxy-1-methyl-4H-benzo[f][1,2,4]triazolo[4,3-a][1,4]diazepin-4-yl)pentanoate]
[3]
  ΔTm Brd2(1): 1.7 ± 0.2 K
[4]
  ΔTm Brd2(2): 2.1 ± 0.1 K
[5]
  ΔTm Brd4(1): 2.9 ± 0.7 K
[6]
  ΔTm Brd4(2): 3.2 ± 0.7 K
[7]
  ΔTm Brd4(1)* (L094A): 6.4 ± 0.8 K
[8]
  ΔTm Brd4(2)* (L387A): 6.7 ± 0.2 K
[9]
  Kd: 5880 ± 1210 nM
  ΔH Brd2(1): -11.49 ± 1.048 kcal/mol
[10]
  ΔH Brd2(2): -9.52 ± 0.5449 kcal/mol
  Kd: 2390 ± 1480 nM
[1]
  Thermal stabilization of Brd2 mutants versus wild types (FIG. 15): smaller shifts
[11]
  Solubility: lower than that for compounds with smaller bumps
[12]
  ΔTm Brd2(1)*(Leu110-Ala): 4.0 ± 0.4 K
[13]
  ΔTm Brd2(2)*(Leu383-Ala): 5.0 ± 0.1 K
[14]
  Kd: 400 ± 82.4 nM
  ΔH Brd2(1)* (Leu110-Ala): −11160 ± 241.8 cal/mol
[15]
  ΔH Brd2(2)* (Leu383-Ala): -7.095 ± 0.1069 kcal/mol
  Kd: 265 ± 53.9 nM

## COC(=O)[C@H](CC1CC1)[C@@H]1N=C(c2ccc(Cl)cc2)c2cc(OC)ccc2-n2c(C)nnc21 (racemic) [Compound 13, (+−)-methyl (R)-2-((S)-6-(4-chlorophenyl)-8-methoxy-1-methyl-4H-benzo[f][1,2,4]triazolo[4,3-a][1,4]diazepin-4-yl)-3-cyclopropylpropanoate]
[3]
  ΔTm Brd2(1): 0.5 ± 0.3 K
[4]
  ΔTm Brd2(2): 3.7 ± 0.6 K
[5]
  ΔTm Brd4(1): 1.2 ± 0.6 K
[6]
  ΔTm Brd4(2): 2.0 ± 1.0 K
[7]
  ΔTm Brd4(1)* (L094A): 5.6 ± 0.3 K
[8]
  ΔTm Brd4(2)* (L387A): 5.8 ± 0.1 K
[9]
  Kd: 4310 ± 3050 nM
  ΔH Brd2(1): -3.402 ± 0.4335 kcal/mol
[10]
  ΔH Brd2(2): -2.089 ± 0.211 kcal/mol
  Kd: 3320 ± 1860 nM
[11]
  Solubility: lower than that for compounds with smaller bumps
[12]
  ΔTm Brd2(1)*(Leu110-Ala): 3.7 ± 0.2 K
[13]
  ΔTm Brd2(2)*(Leu383-Ala): 5.3 ± 0.3 K
[14]
  Kd: 360 ± 68.2 nM
  ΔH Brd2(1)* (Leu110-Ala): −9662 ± 162.7 cal/mol
[15]
  ΔH Brd2(2)* (Leu383-Ala): -7.868 ± 0.3365 kcal/mol
  Kd: 667 ± 330 nM
